The values below come from patent US20230167073A1 (Teijin Pharma Limited, priority 2020, published 2023).

Structures are written as SMILES.

The assay addresses T1, Human TRPC6 (Homo sapiens, UniProt Q9Y210).
T1 construct: expressed in transfected cells
T1 sequence (Q9Y210 1-931): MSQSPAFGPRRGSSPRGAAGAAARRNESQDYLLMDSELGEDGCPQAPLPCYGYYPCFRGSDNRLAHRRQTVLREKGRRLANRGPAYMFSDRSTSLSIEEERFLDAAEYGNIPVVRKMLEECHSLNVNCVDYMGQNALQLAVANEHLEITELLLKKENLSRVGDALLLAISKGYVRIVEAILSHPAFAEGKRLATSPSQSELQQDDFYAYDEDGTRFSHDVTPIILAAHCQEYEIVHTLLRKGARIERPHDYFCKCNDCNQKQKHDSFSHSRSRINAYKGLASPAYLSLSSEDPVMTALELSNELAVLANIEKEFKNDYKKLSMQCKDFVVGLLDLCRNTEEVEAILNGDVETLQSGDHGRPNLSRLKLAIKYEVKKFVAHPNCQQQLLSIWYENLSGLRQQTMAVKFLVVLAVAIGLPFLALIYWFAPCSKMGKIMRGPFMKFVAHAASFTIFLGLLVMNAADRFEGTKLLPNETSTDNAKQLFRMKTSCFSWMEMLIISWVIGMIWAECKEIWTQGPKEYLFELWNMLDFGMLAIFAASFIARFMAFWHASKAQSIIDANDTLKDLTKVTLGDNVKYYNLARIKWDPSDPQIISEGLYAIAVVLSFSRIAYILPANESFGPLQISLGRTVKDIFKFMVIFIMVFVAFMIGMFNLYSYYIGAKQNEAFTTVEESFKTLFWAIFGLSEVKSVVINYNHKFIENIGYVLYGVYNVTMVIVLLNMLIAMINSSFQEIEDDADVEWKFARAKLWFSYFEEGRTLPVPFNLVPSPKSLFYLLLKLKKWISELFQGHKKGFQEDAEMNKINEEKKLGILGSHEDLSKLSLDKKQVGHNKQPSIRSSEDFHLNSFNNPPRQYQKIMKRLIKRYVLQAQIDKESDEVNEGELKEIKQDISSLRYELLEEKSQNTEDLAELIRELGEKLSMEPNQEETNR
Kind of assay: Evaluation of TRPC6 channel inhibitory activity (1), FLIPR Calcium 5 Assay Kit, OAG stimulation (Compound Nos. 1-1293). In kind it is cell-based. The following applies: Human TRPC6 stably-expressing cells, OAG 30 μM, FLIPR Calcium 5 Assay Kit; read-out: Inhibitory activity (pIC50 class) (converted). A digest of the protocol: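 The FLIPR signal is maximum fluorescence after 30 μM OAG minus minimum before compound, measured in a human TRPC6 stable line loaded with Calcium 5 dye. Compounds were preincubated 20 min. pIC50 came from four-parameter logistic fitting of inhibition rates and is given as symbol ranges.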
Turning to `Cn1nc(C2CC2)cc1Oc1cc(C#N)ccc1-c1cccn2c(CN)nnc12` [compound 515, 4-[3-(aminomethyl)-[1,2,4]triazolo[4,3-a]pyridin-8-yl]-3-(5-cyclopropyl-2-methylpyrazol-3-yl)oxybenzonitrile], the IC50 was 10 to 1000 nM. For the compound `N#Cc1ccc(-c2ccc(CCN)cn2)c(Cn2cnc(-c3ccc(F)cc3)c2)c1` [compound 1147, 4-[5-(2-aminoethyl)pyridin-2-yl]-3-[[4-(4-fluorophenyl)imidazol-1-yl]methyl]benzonitrile], the IC50 was below 10 nM. With `CCN(CC)c1cc(Oc2cc(F)ccc2-c2ccc(CCN)cn2)n(C)n1` [compound 991, 5-[2-[5-(2-aminoethyl)pyridin-2-yl]-5-fluorophenoxy]-N,N-diethyl-1-methylpyrazole-3-amine] the figure was below 10 nM; with `Cn1nc(N2CCOCC2)cc1Oc1cc(F)ccc1-c1ccc(CN)cn1` [compound 976, [6-[4-fluoro-2-(2-methyl-5-morpholin-4-ylpyrazo1-3-yl)oxyphenyl]pyridin-3-yl]methanamine], 10 to 1000 nM; with `Cc1nc(-c2ccccn2)cn1Cc1cc(C#N)ccc1-c1ccc(CCN)cn1` [compound 1157, 4-[5-(2-aminoethyl)pyridin-2-yl]-3-[(2-methyl-4-pyridin-2-ylimidazol-1-yl)methyl]benzonitrile], 10 to 1000 nM. With `Cn1nc(-c2ccccc2)cc1Oc1cc(C#N)ccc1-c1ccc(C(F)(F)CN)cn1` [compound 308, 4-[5-(2-amino-1,1-difluoroethyl)pyridin-2-yl]-3-(2-methyl-5-phenylpyrazol-3-yl)oxybenzonitrile] the figure was 10 to 1000 nM. Next, `Cn1nc(C2CC2)cc1Oc1cc(C#N)ccc1-c1ccc(C(=O)CN)cc1` [Compound 214, 4-[4-(2-aminoacetyl)phenyl]-3-(5-cyclopropyl-2-methylpyrazol-3-yl)oxybenzonitrile]: 10 to 1000 nM; `Cc1cc(Oc2cc(C#N)ccc2-c2ccc(C(F)(F)CN)cn2)cc(N2CCOCC2)n1` [compound 307, 4-[5-(2-amino-1,1-difluoroethyl)pyridin-2-yl]-3-(2-methyl-6-morpholin-4-ylpyridin-4-yl)oxybenzonitrile]: 10 to 1000 nM; `Cc1nc(Oc2cc(C#N)ccc2-n2cc([C@@H](O)CNCC#N)cn2)cc(-c2ccccc2)n1` [Compound 279, 4-[4-[(1R)-2-(cyanomethylamino)-1-hydroxyethyl]pyrazol-1-yl]-3-(2-methyl-6-phenylpyrimidin-4-yl)oxybenzonitrile]: above 1000 nM. As for `Cn1nc(C2CC2)cc1Oc1cc(C#N)ccc1-c1ncc(NCCN)cn1` [compound 432, 4-[5-(2-aminoethylamino)pyrimidin-2-yl]-3-(5-cyclopropyl-2-methylpyrazol-3-yl)oxybenzonitrile], the IC50 was below 10 nM. Next, `Cn1nc(C2CC2)cc1Oc1cc(C#N)ccc1-c1nc(C(O)CN)cs1` (stereo not drawn) [Compound 216, 4-[4-(2-amino-1-hydroxyethyl)-1,3-thiazol-2-yl]-3-(5-cyclopropyl-2-methylpyrazol-3-yl)oxybenzonitrile]: 10 to 1000 nM; `COC1CCN(c2cc(Oc3cc(C#N)ccc3-n3cc([C@@H](O)CN)cn3)nc(C)n2)CC1` [Compound 251, 4-[4-[(1R)-2-amino-1-hydroxyethyl]pyrazol-1-yl]-3-[6-(4-methoxypiperidin-1-yl)-2-methylpyrimidin-4-yl]oxybenzonitrile]: above 1000 nM. With `Cc1nn(CC(F)(F)F)cc1Oc1cc(F)ccc1-c1ncc(CCN)cn1` [compound 968, 2-[2-[4-fluoro-2-[3-methyl-1-(2,2,2-trifluoroethyl)pyrazol-4-yl]oxyphenyl]pyrimidin-5-yl]ethanamine] the figure was below 10 nM; with `CC(C)CN(C)c1cc(Oc2cc(C#N)ccc2-c2ncc(CCN)cn2)n(C)n1` [compound 758, 4-[5-(2-aminoethyl)pyrimidin-2-yl]-3-[2-methyl-5-[methyl(2-methylpropyl)amino]pyrazol-3-yl]oxybenzonitrile], below 10 nM. With `N#Cc1ccc(-c2ccc([C@@H](O)CN)cn2)c(Cn2cnc(-c3ccccc3)c2)c1` [compound 1138, 4-[5-[(1R)-2-amino-1-hydroxyethyl]pyridin-2-yl]-3-[(4-phenylimidazol-1-yl)methyl]benzonitrile] the figure was 10 to 1000 nM; with `CN(CC(F)F)c1cc(Oc2cc(F)ccc2-c2ncc(CCN)cn2)n(C)n1` [compound 987, 5-[2-[5-(2-aminoethyl)pyrimidin-2-yl]-5-fluorophenoxy]-N-(2,2-difluoroethyl)-N,1-dimethylpyrazole-3-amine], below 10 nM; with `Cc1ncsc1-c1cc(Oc2cc(C#N)ccc2-c2ncc(CN)cn2)n(C)n1` [compound 958, 4-[5-(aminomethyl)pyrimidin-2-yl]-3-[2-methyl-5-(4-methyl-1,3-thiazol-5-y)pyrazol-3-yl]oxybenzonitrile], below 10 nM. In the case of `Cn1nc(N2CCCCC2)cc1C(=O)c1cc(C#N)ccc1-c1ncc(CN)cn1` [compound 1063, 4-[5-(aminomethyl)pyrimidin-2-yl]-3-(2-methyl-5-piperidin-1-ylpyrazole-3-carbonyl)benzonitrile], the IC50 is below 10 nM. With `Cc1nc(N2CCOCC2)sc1C(=O)c1cc(C#N)ccc1-c1ncc(CCN)cn1` [compound 1065, 4-[5-(2-aminoethyl)pyrimidin-2-yl]-3-(4-methyl-2-morpholin-4-yl-1,3-thiazole-5-carbonyl)benzonitrile] the figure was below 10 nM. `Cn1nc(C2CC2)cc1Oc1cc(C#N)ccc1-c1ccc(CCN)cc1` [Compound 213, 4-[4-(2-aminoethyl)phenyl]-3-(5-cyclopropyl-2-methylpyrazol-3-yl)oxybenzonitrile]: the IC50 is below 10 nM.

`Cc1nc(Oc2cc(C#N)ccc2-c2ccc(CC3(N)COC3)cn2)cc(N2CCC[C@H]2C#N)n1` [compound 673, (2S)-1-[6-[2-[5-[(3-aminooxetan-3-yl)methyl]pyridin-2-yl]-5-cyanophenoxy]-2-methylpyrimidin-4-yl]pyrrolidine-2-carbonitrile]: the IC50 is above 1000 nM.

Consider `Cc1cc(Oc2cc(C#N)ccc2-c2ccc(CCN)cn2)cc(N2CCCC2)n1` [Compound 254, 4-[5-(2-aminoethyl)pyridin-2-yl]-3-(2-methyl-6-pyrrolidin-1-ylpyridin-4-yl)oxybenzonitrile], for which the IC50 was below 10 nM. `Cn1nc(-c2ccccc2)cc1Oc1nc(Cl)ccc1-c1ccc(CCN)cn1` [compound 1292, 2-[6-[6-chloro-2-(2-methyl-5-phenylpyrazol-3-yl)oxypyridin-3-yl]pyridin-3-yl]ethanamine]: the IC50 was 10 to 1000 nM. Next, `CN(C)c1cc(Oc2cc(C#N)ccc2-c2ccc([C@@H](F)CN)cn2)n(C)n1` [compound 910, 4-[5-[(1R)-2-amino-1-fluoroethyl]pyridin-2-yl]-3-[5-(dimethylamino)-2-methylpyrazol-3-yl]oxybenzonitrile]: below 10 nM; `Cn1nc(C2CC2)cc1Oc1cc(C#N)ccc1-c1cc(CN)cn2cnnc12` [compound 731, 4-[6-(aminomethyl)-[1,2,4]triazolo[4,3-a]pyridin-8-yl]-3-(5-cyclopropyl-2-methylpyrazol-3-yl)oxybenzonitrile]: above 1000 nM. As for `CCCc1nccn1Cc1cc(C#N)ccc1-c1ccc(CCN)cc1` [compound 1121, 4-[4-(2-aminoethyl)phenyl]-3-[(2-propylimidazol-1-yl)methyl]benzonitrile], the IC50 was above 1000 nM.

With `Cc1nc(Oc2cc(C#N)ccc2-c2ccc(C(CN)C(F)F)cc2)cc(N2CCOCC2)n1` (stereo not drawn) [Compound 133, 4-[4-(3-amino-1,1-difluoropropan-2-yl)phenyl]-3-(2-methyl-6-morpholin-4-ylpyrimidin-4-yl)oxybenzonitrile], the IC50 was below 10 nM.

Consider `Cn1nc(-c2ccccc2)cc1Oc1cc(C#N)ccc1-c1ccc(CCN)cc1` [Compound 115, 4-[4-(2-aminoethyl)phenyl]-3-(2-methyl-5-phenylpyrazol-3-yl)oxybenzonitrile], for which the IC50 is below 10 nM.

Take `Cc1nc(Oc2cc(C#N)ccc2-c2ccc(C(CN)OCC(=O)O)cc2)cc(N2CCOCC2)n1` (stereo not drawn) [Compound 63, 2-[2-amino-1-[4-[4-cyano-2-(2-methyl-6-morpholin-4-ylpyrimidin-4-yl)oxyphenyl]phenyl]ethoxy] acetic acid]: the IC50 was above 1000 nM. As for `Cc1nnc(N2CCCCC2)cc1Oc1cc(C#N)ccc1-c1ncc(CN)cn1` [compound 821, 4-[5-(aminomethyl)pyrimidin-2-yl]-3-(3-methyl-6-piperidin-1-ylpyridazin-4-yl)oxybenzonitrile], the IC50 was 10 to 1000 nM.
